Laboratory results taken from patent publication US20140066394A1, “Substituted 6-(Benzylamino) Purine Riboside Derivatives, Use Thereof and Compositions Containing These Derivatives” (Biopatterns, S.R.O, priority 2009, published 2014).

Tested on: β-adrenergic receptors
Test: Isoproterenol-induced cAMP synthesis in rat C6 glioma (anti-inflammatory activity)
Assay type: cell-based
Protocol: Anti-inflammatory activity of several of the 2-substituted 6-benzylaminopurine riboside derivatives of this invention was determined; kinetin riboside was also evaluated as a control. Rat C6 glioma (ATCC No. CCL107) was cultivated in monolayer in serum-free chemically defined medium containing Ham's F10/minimal essential medium (1:1 v/v), 2 mM L-glutamine, 1% (v/v) minimal essential medium vitamins (100×), 1% (v/v) minimal essential medium nonessential amino acids (100×), 100 U/mL penicillin, […], and 30 nM sodium selenite. Incubation was performed at 37° C. in a humidified atmosphere. The assays were performed in the logaritmic growth phase at a density of 2.5×10^5 cells/cm^2.
Intracellular cAMP synthesis was induced by addition of 5 mM (−)-isoproterenol; various amounts of test compounds were added at the same time as the (−)-isoproterenol. After […] incubation at 37° C., the medium was removed and the cellular amount of cAMP was determined using the cAMP-enzyme immunoassay kit from Amersham. The I50 value was determined from a dose-response curve in duplicate. The effect of nine purine analogues was measured after simultaneous addition with isoproterenol.
As P2Y1-like and A2 purinergic receptors, negatively and positively coupled to adenylate cyclase respectively, are present on rat C6 glioma as to be determined if the modulation of the synthesis of cAMP is due to inhibition of the activation of β-adrenergic receptors by isoproterenol are due to activation of purinergic receptors.

- Effect (modulation of isoproterenol-induced cAMP synthesis) (added simultaneously with (−)-isoproterenol): inhibition
- IC50 (cellular cAMP by enzyme immunoassay, dose-response curve in duplicate, read-out: I50): 7.5 ± 1 µM
Compound: COc1cccc(CNc2nc(Cl)nc3c2ncn3C2OC(CO)C(O)C2O)c1O (centres unmarked) [Compound 10, 2-Chloro-6-(2-hydroxy-3-methoxybenzylamino)purine riboside]
